Laboratory results: US20260083865A1, “PROSTATE SPECIFIC MEMBRANE ANTIGEN (PSMA) LIGANDS AND USE THEREOF” (priority 2022, published 2026)
Like-named read-outs stand apart in the source and are kept apart here. Numbered stars: 1 amine (or outer) side, 2 acyl side, 3 side chain; on linkers, the order of the positions; unused ones are H or OH. Bridge positions count the residues as written; N and C are the ends. Square brackets hold non-standard residues; d marks the D form. Side chains are listed from the residue outwards. Peptide text beside a SMILES is read from it. * marks the point of attachment. X7 = O=C(O)CN1CCN(CC(=O)O)CCN(CC(=O)NC2CCN(CC(=O)*)CC2)CCN(CC(=O)O)CC1; DOTA = O=C(O)CN1CCN(CC(=O)O)CCN(CC(=O)*)CCN(CC(=O)O)CC1; X10 = NC(=O)CN1CCN(CC(=O)O)CCN(CC(=O)*)CCN(CC(=O)O)CC1; Phe(4-Cl) = N[C@@H](Cc1ccc(Cl)cc1)C(=O)O; Arg(Me) = CNC(=N)NCCC[C@H](N)C(=O)O; Lys(Me2) = CN(C)CCCC[C@H](N)C(=O)O; X1 = O=C(CC1CCN([*:1])CC1)[*:2]; Lys(Me) = CNCCCC[C@H](N)C(=O)O; Tle = CC(C)(C)[C@H](N)C(=O)O; 4Abz = Nc1ccc(C(=O)O)cc1; Aib = CC(C)(N)C(=O)O

How the values were obtained:
[1] = molecular target: T1, PSMA-expressing C4-2 cells (Homo sapiens, UniProt Q04609); assay: FACS binding assay (competition with 50 nM PSM-0183); conditions: read-out: pIC50 [C4-2] CAT (converted)
T1 construct: PSMA-expressing C4-2 cells (ATCC, Cat. No. CRL-3314) were cultured in RPMI-1640; host or cells: C4-2 cells
T1 sequence (Q04609 whole entry): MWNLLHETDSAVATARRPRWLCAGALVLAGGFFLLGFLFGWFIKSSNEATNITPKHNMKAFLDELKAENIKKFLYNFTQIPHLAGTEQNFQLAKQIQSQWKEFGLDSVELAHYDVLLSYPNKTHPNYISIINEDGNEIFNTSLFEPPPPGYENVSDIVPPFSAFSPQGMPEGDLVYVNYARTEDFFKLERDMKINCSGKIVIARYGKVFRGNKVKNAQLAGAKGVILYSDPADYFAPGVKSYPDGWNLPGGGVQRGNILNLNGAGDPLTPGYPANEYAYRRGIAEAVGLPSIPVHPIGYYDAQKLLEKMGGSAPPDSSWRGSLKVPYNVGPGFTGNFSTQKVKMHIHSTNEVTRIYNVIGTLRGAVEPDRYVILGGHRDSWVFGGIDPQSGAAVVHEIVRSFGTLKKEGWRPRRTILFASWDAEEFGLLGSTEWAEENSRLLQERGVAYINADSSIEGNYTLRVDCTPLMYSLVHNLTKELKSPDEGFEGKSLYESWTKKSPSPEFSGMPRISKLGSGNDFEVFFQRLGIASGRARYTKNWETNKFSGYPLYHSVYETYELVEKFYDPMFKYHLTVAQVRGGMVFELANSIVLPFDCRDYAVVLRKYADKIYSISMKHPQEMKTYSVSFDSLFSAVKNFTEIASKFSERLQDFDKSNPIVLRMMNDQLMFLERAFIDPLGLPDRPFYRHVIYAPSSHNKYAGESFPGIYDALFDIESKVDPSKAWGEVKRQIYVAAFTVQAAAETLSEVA
Description: In order to determine binding of compounds according to the present invention to PSMA-expressing cells, a FACS binding assay was established.
PSMA-expressing C4-2 cells (ATCC, Cat. No. CRL-3314) were cultured in RPMI-1640 (Pan Biotech, Cat. No. P04-18050) including 10% fetal calf serum (Biochrom) and 100 U/ml penicillin and 100 μg/mL streptomycin (Sigma, Cat. No. P0781). Cells were detached with Accutase (Biolegend, Cat. No. BLD-423201) and washed in FACS buffer (PBS (Sigma, Cat. No. D8537) including 1% fetal calf serum). Cells were diluted in FACS buffer to a final concentration of 500,000 cells per mL. 200 μL of the cell suspension were transferred to a u-shaped non-binding 96-well plate (Greiner Bio-One, Cat. No. 650901) and cells were washed in ice-cold FACS buffer.
For IC50 determination, C4-2 cells were incubated with 50 nM PSM-0183 (Ac-Thr-Aib-Phe[Cys-Lys-Arg-Aib-Asn-Cys]-Tle-Thr-Asp-Ttds-Ttds-AF488N3K-NH2) in the presence of increasing concentrations of test compounds at 4° C. for 1 hour. After two wash steps with ice-cold FACS buffer, cells were analyzed in an Attune NxT flow cytometer. Median fluorescence intensities (MFI) of the FITC/AF488-channel were calculated by Attune NxT software. MFI values were plotted against peptide concentration and four parameter logistic (4PL) curve fitting and IC50/pIC50 calculations were performed using ActivityBase software (IDBS).

[2] = molecular target: T2, Fc-fusion protein of human PSMA (hPSMA-Fc) (Homo sapiens, UniProt Q04609); assay: Surface plasmon resonance assay (Biacore T200, single cycle kinetic); assay type: binding; conditions: read-out: pKD CAT (converted)
T2 construct: purchased Acro Biosystems PSA-H5264
T2 sequence (Q04609 44-750 limits assumed): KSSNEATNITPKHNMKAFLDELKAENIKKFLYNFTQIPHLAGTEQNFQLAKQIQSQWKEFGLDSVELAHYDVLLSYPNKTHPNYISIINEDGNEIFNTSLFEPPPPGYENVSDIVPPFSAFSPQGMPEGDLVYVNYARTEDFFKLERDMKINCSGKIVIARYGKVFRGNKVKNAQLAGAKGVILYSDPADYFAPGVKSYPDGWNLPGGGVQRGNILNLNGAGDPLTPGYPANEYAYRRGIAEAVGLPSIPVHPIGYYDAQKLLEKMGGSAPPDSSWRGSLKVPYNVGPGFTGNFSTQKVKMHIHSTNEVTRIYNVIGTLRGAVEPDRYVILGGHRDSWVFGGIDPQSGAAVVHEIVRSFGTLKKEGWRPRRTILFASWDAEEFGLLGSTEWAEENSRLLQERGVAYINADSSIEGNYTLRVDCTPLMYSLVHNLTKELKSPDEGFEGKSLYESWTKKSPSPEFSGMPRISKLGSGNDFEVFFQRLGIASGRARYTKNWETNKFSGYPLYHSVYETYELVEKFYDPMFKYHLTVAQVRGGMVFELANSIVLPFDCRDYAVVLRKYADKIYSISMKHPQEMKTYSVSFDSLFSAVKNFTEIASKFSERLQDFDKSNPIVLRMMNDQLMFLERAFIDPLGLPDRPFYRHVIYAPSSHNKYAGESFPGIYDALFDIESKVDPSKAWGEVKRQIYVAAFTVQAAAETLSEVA
Description: Surface plasmon resonance (SPR) studies were performed using a Biacore™ T200 SPR system. Briefly, polarized light is directed towards a gold-labeled sensor surface, and minimum intensity reflected light is detected. The angle of reflected light changes as molecules bind and dissociate.
Fc-fusion protein of human PSMA (hPSMA-Fc, Acro Biosystems, Cat #PSA-H5264) was captured on a Fc-capture chip (Biacore™ CM5 sensor chip coated with ˜300 RU of an Fc-binding peptide). hPSMA-Fc was diluted in Running Buffer (HBST, 0.1% DMSO) to a final concentration of 100 nM and then flushed over the Fc-capture chip to immobilized ˜1000 RUs.
Stock solutions of test compounds were prepared by dissolving each compound in DMSO. DMSO stock solution were diluted 1:1000 in Running Buffer without DMSO. Further sequential dilutions were made with Running Buffer containing 0.1% DMSO. SPR binding analyses were performed in Single Cycle Kinetic (SCK) mode at 25° C. Flow cell coated with the Fc-binding peptide only served as reference flowcell. After each SCK run, hPSMA-Fc was removed with 10 mM glycine buffer, pH 1.5.
In between every three SCK measurements, a blank run with Running Buffer instead of test compound was included to correct for baseline drifts (double blanking method).
Table 5 describes the protocol steps for Fc-fusion target capturing and assessment of the binding kinetics.
For each test compound, SPR raw data in the form of resonance units (RU) were plotted as sensorgrams using the Biacore™ T200 control software. The signal from the blank sensorgram was subtracted from that of the test compound sensorgram (blank corrected). The blank corrected sensorgram was corrected for baseline drift by subtracting the sensorgram of a SCK run without the test compound (running buffer only). The dissociation constant (KD) was calculated from Blank-normalized SPR data using the 1:1 Langmuir binding model from the Biacore™ Insight Evaluation software. The pKD value (negative decadic logarithm of dissociation constant) was calculated using Microsoft Excel.

[3] = FACS binding, C4-2 cells, category
[4] = FACS binding, C4-2 cells, competition with 50 nM PSM-0183, category
[5] = SPR, hPSMA-Fc, single cycle kinetic, 25° C., category

| SMILES | IC50 [1, 3] | Kd ([2]; PSMA SPR assay, category) | IC50 [1, 4] | Kd [2, 5] | other results |
| --- | --- | --- | --- | --- | --- |
| CNC(=N)NCCC[C@@H]1NC(=O)[C@H](CCCCN(C)C)NC(=O)[C@@H](NC(=O)[C@H](Cc2ccc(Cl)cc2)NC(=O)C(C)(C)NC(=O)[C@@H](NC(=O)CC2CCN(C(=O)CN3CCN(CC(=O)O)CCN(CC(=O)O)CCN(CC(=O)O)CC3)CC2)[C@@H](C)O)CSSC[C@@H](C(=O)N[C@H](C(=O)N[C@H](C(N)=O)[C@@H](C)O)C(C)(C)C)NC(=O)[C@H](CC(N)=O)NC(=O)C(C)(C)NC1=O [PSM-0203, DOTA-Cmp-Thr-Aib-Pcf-[Cys-KMe2-Arg(Me)-Aib-Asn-Cys]-Tle-Thr-NH2] ({DOTA}-[X1]T[Aib][Phe(4-Cl)]C[Lys(Me2)][Arg(Me)][Aib]NC[Tle]T-NH2; disulfide 5-10) |  |  | < 200 nM | < 12.6 nM |  |
| CC(=O)N[C@H](C(=O)NC(C)(C)C(=O)N[C@@H](Cc1ccccc1)C(=O)N[C@H]1CSSC[C@@H](C(=O)N[C@H](C(=O)N[C@H](C(N)=O)[C@@H](C)O)C(C)(C)C)NC(=O)[C@H](CC(N)=O)NC(=O)[C@H](CCCCNC(=O)c2ccc(NC(=O)CN3CCN(CC(=O)O)CCN(CC(=O)O)CCN(CC(=O)O)CC3)cc2)NC(=O)[C@H](CCCNC(=N)N)NC(=O)[C@H](CCCCN)NC1=O)[C@@H](C)O [PSM-0211, Ac-Thr-Aib-Phe-[Cys-Lys-Arg-Lys(DOTA-Pab)-Asn-Cys]-Tle-Thr-NH2] (Ac-T[Aib]FCKRK([4Abz-DOTA])NC[Tle]T-NH2; disulfide 4-9) |  |  | < 200 nM | < 12.6 nM |  |
| CC(=O)N[C@H](C(=O)NC(C)(C)C(=O)N[C@@H](Cc1ccccc1)C(=O)N[C@H]1CSSC[C@@H](C(=O)N[C@H](C(=O)N[C@H](C(N)=O)[C@@H](C)O)C(C)(C)C)NC(=O)[C@H](CC(N)=O)NC(=O)[C@H](CCCCNC(=O)CN2CCC(NC(=O)CN3CCN(CC(=O)O)CCN(CC(=O)O)CCN(CC(=O)O)CC3)CC2)NC(=O)[C@H](CCCNC(=N)N)NC(=O)[C@H](CCCCN)NC1=O)[C@@H](C)O [PSM-0464, Ac-Thr-Aib-Phe-[Cys-Lys-Arg-Lys(DOTA-APAc)-Asn-Cys]-Tle-Thr-NH2] (Ac-T[Aib]FCKRK(X7)NC[Tle]T-NH2; disulfide 4-9) |  |  |  |  | IC50 ([1]; pIC50 category of FACS binding, C4-2 cells): < 200 nM; Kd ([2]; pKD category for PSMA SPR activity assay, hPSMA-Fc, 25° C.): < 12.6 nM |
| CC(=O)N[C@H](C(=O)NC(C)(C)C(=O)N[C@@H](Cc1ccc(Cl)cc1)C(=O)N[C@H]1CSSC[C@@H](C(=O)N[C@H](C(=O)N[C@H](C(=O)N[C@@H](CC(=O)O)C(N)=O)[C@@H](C)O)C(C)(C)C)NC(=O)[C@H](CC(N)=O)NC(=O)C(C)(C)NC(=O)[C@H](CCCNC(=N)N)NC(=O)[C@H](CCCCN)NC1=O)[C@@H](C)O [PSM-0318, Ac-Thr-Aib-Pcf-[Cys-Lys-Arg-Aib-Asn-Cys]-Tle-Thr-Asp-NH2] (Ac-T[Aib][Phe(4-Cl)]CKR[Aib]NC[Tle]TD-NH2; disulfide 4-9) |  |  |  |  | IC50 ([1]; FACS binding, PSMA-expressing C4-2 cells, pIC50 category): < 200 nM; Kd ([2]; PSMA SPR assay, hPSMA-Fc, 25° C., pKD category): < 12.6 nM |

Continued, in another order:

| IC50 [1, 3] | Kd ([2]; PSMA SPR assay, category) | SMILES | IC50 [1, 4] | Kd [2, 5] | other results |
| --- | --- | --- | --- | --- | --- |
| < 200 nM | < 12.6 nM | CC(=O)N[C@H](C(=O)NC(C)(C)C(=O)N[C@@H](Cc1ccccc1)C(=O)N[C@H]1CSSC[C@@H](C(=O)N[C@H](C(=O)N[C@H](C(=O)N[C@@H](CC(=O)O)C(N)=O)[C@@H](C)O)C(C)(C)C)NC(=O)[C@H](CC(N)=O)NC(=O)[C@H](C)NC(=O)[C@H](CCCNC(=N)N)NC(=O)[C@H](CCCCN)NC1=O)[C@@H](C)O [PSM-0565, Ac-Thr-Aib-Phe-[Cys-Lys-Arg-Ala-Asn-Cys]-Tle-Thr-Asp-NH2] (Ac-T[Aib]FCKRANC[Tle]TD-NH2; disulfide 4-9) |  |  |  |
| < 200 nM | < 12.6 nM | CNCCCC[C@@H]1NC(=O)[C@@H](NC(=O)[C@H](Cc2ccc(Cl)cc2)NC(=O)C(C)(C)NC(=O)[C@@H](NC(=O)CC2CCN(C(=O)CN3CCN(CC(=O)O)CCN(CC(N)=O)CCN(CC(=O)O)CC3)CC2)[C@@H](C)O)CSSC[C@@H](C(=O)N[C@H](C(=O)N[C@H](C(N)=O)[C@@H](C)O)C(C)(C)C)NC(=O)[C@H](CC(N)=O)NC(=O)C(C)(C)NC(=O)[C@H](CCCNC(=N)NC)NC1=O [PSM-0601, LSC-Cmp-Thr-Aib-Pcf-[Cys-Lys(Me)-Arg(Me)-Aib-Aan-Cys]-Tle-Thr-NH] (X10-[X1]T[Aib][Phe(4-Cl)]C[Lys(Me)][Arg(Me)][Aib]NC[Tle]T-NH2; disulfide 5-10) |  |  |  |
